The values that follow come from patent US10414763B2 (CANCER RESEARCH TECHNOLOGY LIMITED, priority 2014, dated 2019).

The target of the assay is T1, full-length human PKCι (Homo sapiens, UniProt P41743).
T1 construct: Recombinant, full-length human PKCι expressed in Sf21 insect cells is also commercially available; purchased EMD Millipore; host or cells: Sf21 insect cells (baculovirus)
T1 sequence (P41743 1-596): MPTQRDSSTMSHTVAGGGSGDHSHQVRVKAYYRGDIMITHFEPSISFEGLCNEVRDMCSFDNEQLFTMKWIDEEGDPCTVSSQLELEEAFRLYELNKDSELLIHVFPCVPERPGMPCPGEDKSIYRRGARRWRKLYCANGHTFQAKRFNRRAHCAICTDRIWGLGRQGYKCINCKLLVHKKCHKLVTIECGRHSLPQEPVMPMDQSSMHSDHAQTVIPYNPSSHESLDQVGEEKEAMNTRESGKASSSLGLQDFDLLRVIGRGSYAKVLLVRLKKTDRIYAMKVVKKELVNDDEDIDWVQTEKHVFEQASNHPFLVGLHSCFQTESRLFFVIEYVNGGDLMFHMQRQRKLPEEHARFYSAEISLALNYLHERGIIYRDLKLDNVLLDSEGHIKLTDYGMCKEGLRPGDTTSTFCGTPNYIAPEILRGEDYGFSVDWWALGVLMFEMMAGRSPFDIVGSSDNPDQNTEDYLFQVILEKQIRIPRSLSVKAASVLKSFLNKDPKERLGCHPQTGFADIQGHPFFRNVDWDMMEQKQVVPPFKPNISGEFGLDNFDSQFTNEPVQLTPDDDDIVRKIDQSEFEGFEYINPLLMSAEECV
The assay can be described thus: PKCι IC50 IMAP fluorescence polarisation assay, full-length enzyme, 150 μM ATP. It counts as biochemical. To be noted: read-out: IC50 in IMAP assay against full length PKCi at 150 μM ATP. Put shortly:
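IMAP fluorescence polarisation kinase assay: 15 pM baculovirus-expressed human PKCiota with 100 nM FAM-pseudosubstrate peptide and 150 μM ATP, 1 h at 25 °C. IMAP detection reagent then 2 h at 25 °C before FP measurement. Inhibition referenced to no-compound and no-enzyme controls for IC50 fitting.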
(In general: In fluorescence polarisation assays a small probe gives low polarisation when free and higher when bound to something large.)

Turning to `C[C@H]1CNCC[C@@H]1Nc1nc(-c2ccnc(Nc3nc(F)ccc3F)c2)nc2cncc(C3CCC3)c12` (single isomer, unassigned) [Example 280, {5-Cyclobutyl-2-[2-(3,6-difluoro-pyridin-2-ylamino)-pyridin-4-yl]-pyrido[3,4-d]pyrimidin-4-yl}-((3S,4S)-3-methyl-piperidin-4-yl)-amine or enantiomer], the IC50 (usually the midpoint of a concentration-inhibition curve) was below 0.1 µM.

With `CC1(C)CNCC[C@@H]1Nc1nc(-c2ccnc3[nH]c(-c4ccccc4F)cc23)nc2cncc(C3CC3)c12` [Example 394, {5-Cyclopropyl-2-[2-(2-fluoro-phenyl)-1H-pyrrolo[2,3-b]pyridin-4-yl]-pyrido[3,4-d]pyrimidin-4-yl}-((S)-3,3-dimethyl-piperidin-4-yl)-amine], the IC50 is below 0.1 µM. With `CC1(C)CNCC[C@@H]1Nc1nc(-c2ccnc(Nc3ncccc3Cl)c2)nc2cncc(C3CCC3)c12` [Example 336, 2-[2-[(3-Chloro-2-pyridyl)amino]-4-pyridyl]-5-cyclobutyl-N-[(4S)-3,3-dimethyl-4-piperidyl]pyrido [3,4-d]pyrimidin-4-amine], the IC50 is below 0.1 µM. `N[C@H]1C[C@@H](Nc2nc(-c3ccnc4[nH]c5ccccc5c34)nc3cncc(C4CCC4)c23)C1` [Example 121, cis-[5-Cyclobutyl-2-(9H-pyrido[2,3-b]indol-4-yl)-pyrido[3,4-d]pyrimidin-4-yl]-cyclobutane-1,3-diamine]: the IC50 was below 0.1 µM.

Turning to `C[C@@H]1CNCC[C@H]1Nc1nc(-c2ccnc(Nc3ncc(F)cc3F)c2)nc2cncc(C3CCC3)c12` (racemic) [Example 290, {5-Cyclobutyl-2-[2-(3,5-difluoro-pyridin-2-ylamino)-pyridin-4-yl]-pyrido[3,4-d]pyrimidin-4-yl}-(rac-(3R,4R)-3-methyl-piperidin-4-yl)-amine], the IC50 was below 0.1 µM. Under `CC1(C)CNCC[C@@H]1Nc1nc(-c2ccnc(Nc3cncc(Cl)c3)c2)nc2cncc(C3CC3)c12` [Example 266, 2-[2-[(5-chloro-3-pyridyl)amino]-4-pyridyl]-5-cyclopropyl-N-[(4S)-3,3-dimethyl-4-piperidyl]pyrido[3,4-d]pyrimidin-4-amine] stands 0.1 to 1 µM; under `CN(c1nc(-c2ccnc3[nH]c(Sc4ccccc4)cc23)nc2cncc(C3CC3)c12)C1CCNCC1(C)C` (centres unmarked) [Example 29, [5-Cyclopropyl-2-(2-phenylsulfanyl-1H-pyrrolo[2,3-b]pyridin-4-yl)-pyrido[3,4-d]pyrimidin-4-yl]-(3,3-dimethyl-piperidin-4-yl)-methyl-amine], below 0.1 µM; under `Cn1cc(-c2cc3c(-c4nc(N5CCNCC5)c5c(C6CCC6)cncc5n4)ccnc3[nH]2)cn1` [Example 132], below 0.1 µM.

As to `COc1ccc(Cl)c(-c2cc3c(-c4nc(N[C@H]5CCNCC5(C)C)c5c(C6CC6)cncc5n4)ccnc3[nH]2)c1` [Example 368, {2-[2-(2-Chloro-5-methoxy-phenyl)-1H-pyrrolo[2,3-b]pyridin-4-yl]-5-cyclopropyl-pyrido[3,4-d]pyrimidin-4-yl}-((S)-3,3-dimethyl-piperidin-4-yl)-amine], the IC50 is below 0.1 µM. The value for `CC1(C)CNCC[C@@H]1Nc1nc(-c2ccnc3[nH]c4ccccc4c23)nc2cncc(C3CCC3)c12` [Example 200] was 0.1 to 1 µM; that for `O[C@@H]1CNCC[C@H]1Nc1nc(-c2ccnc(Nc3nc(F)cc(F)c3F)c2)nc2cncc(C3CCC3)c12` (racemic) [Example 296, rac-(3R,4R)-4-{5-Cyclobutyl-2-[2-(3,4,6-trifluoro-pyridin-2-ylamino)-pyridin-4-yl]-pyrido[3,4-d]pyrimidin-4-ylamino}-piperidin-3-ol] was below 0.1 µM. Under `CC1(C)CNCC[C@@H]1Nc1nc(-c2ccnc(Nc3ncn(-c4ccccc4)n3)c2)nc2cncc(C3CC3)c12` [Example 243, {5-Cyclopropyl-2-[2-(1-phenyl-1H-1,2,4-triazol-3-ylamino)-pyridin-4-yl]-pyrido[3,4-d]pyrimidin-4-yl}-((S)-3,3-dimethyl-piperidin-4-yl)-amine] stands below 0.1 µM; under `CC1(C)CNCCC1Nc1nc(-c2ccnc(Nc3cc4ccccn4n3)c2)nc2cncc(C3CCC3)c12` (centres unmarked) [Example 136, {5-Cyclobutyl-2-[2-(pyrazolo[1,5-a]pyridin-2-ylamino)-pyridin-4-yl]-pyrido[3,4-d]pyrimidin-4-yl}-(3,3-dimethyl-piperidin-4-yl)-amine], below 0.1 µM; under `c1ccc2c(c1)[nH]c1nccc(-c3nc(NC4CCCNCC4)c4c(C5CCC5)cncc4n3)c12` (centres unmarked) [Example 22, Azepan-4-yl-[5-cyclobutyl-2-(9H-pyrido[2,3-b]indol-4-yl)-pyrido[3,4-d]pyrimidin-4-yl]-amine], below 0.1 µM. The value for `Cc1cccc(Nc2cc(-c3nc(N[C@H]4CCNCC4(C)C)c4c(C5CCC5)cncc4n3)ccn2)n1` [Example 271, {5-Cyclobutyl-2-[2-(6-methyl-pyridin-2-ylamino)-pyridin-4-yl]-pyrido[3,4-d]pyrimidin-4-yl}-((S)-3,3-dimethyl-piperidin-4-yl)-amine] was below 0.1 µM.

Consider `CN(c1nc(-c2ccnc3[nH]c(-c4cc(F)ccc4Cl)cc23)nc2cncc(C3CC3)c12)[C@@H]1CCNC[C@@]1(C)O` (racemic) [Example 359, rac-(3R,4R)-4-({2-[2-(2-Chloro-5-fluoro-phenyl)-1H-pyrrolo[2,3-b]pyridin-4-yl]-5-cyclopropyl-pyrido[3,4-d]pyrimidin-4-yl}-methyl-amino)-3-methyl-piperidin-3-ol], for which the IC50 is below 0.1 µM. Under `CC1(C)CNCC[C@@H]1Nc1nc(-c2ccnc(Nc3ccccn3)c2)nc2cncc(C3CCC3)c12` [Example 388, {5-Cyclobutyl-2-[2-(pyridin-2-ylamino)-pyridin-4-yl]-pyrido[3,4-d]pyrimidin-4-yl}-((S)-3,3-dimethyl-piperidin-4-yl)-amine] stands below 0.1 µM; under `FC(F)(F)c1cc2c(-c3nc(N4CCOC5CNCC54)c4c(C5CC5)cncc4n3)ccnc2[nH]1` (centres unmarked) [Example 155, 5-Cyclopropyl-4-(hexahydro-pyrrolo[3,4-b] [1,4]oxazin-4-yl)-2-(2-trifluoromethyl-1H-pyrrolo[2,3-b]pyridin-4-yl)-pyrido[3,4-d]pyrimidine], below 0.1 µM. As for `O[C@@H]1CNCC[C@H]1Nc1nc(-c2ccnc3[nH]c4ccccc4c23)nc2cncc(C3CCC3)c12` (racemic) [Example 345, rac-(3R,4R)-4-[5-Cyclobutyl-2-(9H-pyrido[2,3-b]indol-4-yl)-pyrido[3,4-d]pyrimidin-4-ylamino]-piperidin-3-ol], the IC50 is below 0.1 µM.

Take `Cc1cc2c(-c3nc(N4CCCC5NCCCC54)c4c(C5CC5)cncc4n3)ccnc2[nH]1` (centres unmarked) [Example 94, 5-Cyclopropyl-2-(2-methyl-1H-pyrrolo[2,3-b]pyridin-4-yl)-4-(octahydro-[1,5]naphthyridin-1-yl)-pyrido[3,4-d]pyrimidine]: the IC50 was below 0.1 µM. Under `c1ccc2c(c1)[nH]c1nccc(-c3nc(N[C@H]4[C@@H]5CNC[C@@H]54)c4c(C5CCC5)cncc4n3)c12` [Example 33, (2R,6S)-3-Aza-bicyclo[3.1.0]hex-6-yl-[(S)-5-cyclobutyl-2-(9H-pyrido[2,3-b]indol-4-yl)-pyrido[3,4-d]pyrimidin-4-yl]-amine] stands below 0.1 µM. The value for `CC1(C)CC(Nc2nc(-c3ccnc(Nc4nc(F)ccc4F)c3)nc3cncc(C4CCC4)c23)CCN1` (centres unmarked) [Example 138, {5-Cyclobutyl-2-[2-(3,6-difluoro-pyridin-2-ylamino)-pyridin-4-yl]-pyrido[3,4-d]pyrimidin-4-yl}-(2,2-dimethyl-piperidin-4-yl)-amine] was below 0.1 µM. Under `c1ccc(-n2cnc(Nc3cc(-c4nc(N5CCC6CNCCC65)c5c(C6CC6)cncc5n4)ccn3)n2)cc1` (centres unmarked) [Example 235, [4-[5-Cyclopropyl-4-(octahydro-pyrrolo[3,2-c]pyridin-1-yl)-pyrido[3,4-d]pyrimidin-2-yl]-pyridin-2-yl}-(1-phenyl-1H-1,2,4-triazol-3-yl)-amine] stands below 0.1 µM.

As to `Fc1ccc(Cl)c(-c2cc3c(-c4nc(N5CCNCC5)c5c(C6CC6)cncc5n4)ccnc3[nH]2)c1` [Example 222, 2-[2-(2-Chloro-5-fluoro-phenyl)-1H-pyrrolo[2,3-b]pyridin-4-yl]-5-cyclopropyl-4-piperazin-1-yl-pyrido[3,4-d]pyrimidine], the IC50 is below 0.1 µM. Take `OC1CNCCC(Nc2nc(-c3ccnc4[nH]c5ccccc5c34)nc3cncc(C4CCC4)c23)C1` (centres unmarked) [Example 122, 5-[5-Cyclobutyl-2-(9H-pyrido[2,3-b]indol-4-yl)-pyrido[3,4-d]pyrimidin-4-ylamino]-azepan-3-ol]: the IC50 is below 0.1 µM. For the compound `CC1(C)CNCC[C@@H]1Nc1nc(-c2ccnc3[nH]c(-c4cccnc4)cc23)nc2cncc(C3CCC3)c12` [Example 367, [5-Cyclobutyl-2-(2-pyridin-3-yl-1H-pyrrolo[2,3-b]pyridin-4-yl)-pyrido[3,4-d]pyrimidin-4-yl]-((S)-3,3-dimethyl-piperidin-4-yl)-amine], the IC50 was below 0.1 µM.
